Data reported in patent publication US8624034B2, “Fluoro-pyridinone derivatives useful as antibacterial agents” (Pfizer Inc., priority 2011, dated 2014).
Converted amounts (≈) assume the structure as drawn. Like-named read-outs stand apart in the source and are kept apart here.

Columns and labels:
[1] = tested on: Acinetobacter baumannii/haemolyticus, multidrug-resistant clinical isolate (AB-3167); experiment: MIC determination, AB-3167; format: cell-based; conditions: Table 2, lower of duplicate values
Procedure, shortened: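 Broth dilution MIC per CLSI M7-A8, 2-fold drug series, overnight incubation, lowest concentration visibly inhibiting growth against drug-free control. Run in duplicate, lower value reported; duplicates differing >2-fold repeated; QC strains and reference compounds required in range.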

[2] = tested on: Pseudomonas aeruginosa UI-18: wild-type (PA-7); experiment: MIC determination, PA-7; format: cell-based; conditions: Table 2, lower of duplicate values
Method: The in vitro antibacterial activity of compounds described in the Examples was evaluated by minimum inhibitory concentration (MIC) testing according to Clinical and Laboratory Standards Institute (CLSI). See: Clinical and Laboratory Standards Institute. Methods for Dilution Antimicrobial Susceptibility Tests for Bacteria that Grow Aerobically; Approved Standard-Eighth Edition. CLSI document M7-A8 [ISBN 1-56238-689-1]. Clinical and Laboratory Standards Institute, 940 West Valley Road, Suite 1400, Wayne, Pa. 19087-1898 USA, 2006; also Clinical and Laboratory Standards Institute. Performance Standards for Antimicrobial Susceptibility Testing; Twentieth Informational Supplement. CLSI document M100-S20 [ISBN 1-56238-716-2]. Clinical and Laboratory Standards Institute.
The MIC determination is a standard laboratory method for evaluating the antibacterial activity of a compound. The MIC represents the lowest drug concentration that inhibits visible growth of bacteria following overnight incubation. […] Typically, the drug concentration range is broken down into 2-fold increments (e.g. 0.06 μg/mL, 0.12 μg/mL. 0.25 μg/mL, 0.50 μg/mL, 1.0 μg/mL, etc.) and the various drug concentrations are all individually incubated overnight with approximately the same number of bacteria. The MIC is then determined by visually inspecting the drug effect at each concentration, and identifying the lowest drug concentration that has inhibited bacterial growth as compared to the drug free control. Typically, bacteria continue to grow at drug concentrations lower than the MIC and don't grow at concentrations at and above the MIC.
The MIC values described in Table 2 and 3 below were derived from assays wherein each test compound was evaluated in duplicate. In cases where the duplicate values varied by 0-2-fold, the lower of the two values was reported below. Generally speaking, if the duplicate values varied by more than 2-fold, the assay was considered non-valid and was repeated until the variation between duplicate runs was ≦2-fold. In line with the CLSI guidelines referred to above, both control organisms and reference compounds were utilized in each MIC assay to provide proper quality control. MIC values generated with these control organisms and reference compounds were required to fall within a defined range for the assay to be considered valid and be included herein. Those skilled in the art will recognize that MIC values can and do vary from experiment to experiment. Generally speaking, it should be recognized that MIC values often vary +/−2-fold from experiment to experiment. While a single MIC is reported for each compound and each microorganism, the reader should not conclude that each compound was only tested once. Several of the compounds were subjected to multiple tests. The data reported in Tables 2 and 3 is reflective of the compounds relative activity and different MICs may have been generated on these occasions in line with the guidelines described above.
The following bacterial strains were used in these MIC determinations:
1) Pseudomonas aeruginosa UI-18: Wild-type, labeled as PA-7 in Tables 2 and 3;

[3] = tested on: Escherichia coli EC-1: VOGEL, mouse virulent; experiment: MIC determination, EC-1; format: cell-based; conditions: Escherichia coli, read-out: EC-1 (MIC), Table 2, lower of duplicate values
Procedure, shortened: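 MIC against mouse-virulent E. coli EC-1 (VOGEL) was determined by CLSI M7-A8 broth dilution with 2-fold drug increments and overnight incubation. The MIC is the lowest concentration with no visible growth versus drug-free control. Tests were run in duplicate and the lower value reported if within 2-fold, with QC organisms and reference drugs in each run.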

[4] = target: T1, Pseudomonas aeruginosa LpxC enzyme (Pseudomonas aeruginosa, UniProt P47205); experiment: IC50 assay, LpxC enzyme from P. aeruginosa (PA LpxC enzyme IC50); format: biochemical; conditions: LpxC enzyme 0.1 nM, 25° C., 1 hour
T1 construct: made in house; host or cells: E. coli
T1 sequence (P47205 1-303): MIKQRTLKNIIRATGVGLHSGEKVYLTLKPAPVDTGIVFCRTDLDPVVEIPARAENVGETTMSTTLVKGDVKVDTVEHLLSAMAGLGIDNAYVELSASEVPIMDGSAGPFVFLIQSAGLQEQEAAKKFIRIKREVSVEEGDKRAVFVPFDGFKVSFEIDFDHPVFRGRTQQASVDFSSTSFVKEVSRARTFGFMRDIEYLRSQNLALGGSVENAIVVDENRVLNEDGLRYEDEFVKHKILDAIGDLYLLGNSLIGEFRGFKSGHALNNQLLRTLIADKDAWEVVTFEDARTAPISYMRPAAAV
Procedure, shortened: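 The LpxC reaction ran 1 hour and was stopped with HCl. Substrate-to-product conversion was measured by RapidFire mass spectrometry, and IC50 values were calculated from percent conversion relative to a no-enzyme control.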

C[C@@](CCn1cc(F)c(-c2ccc(F)cc2)cc1=O)(C(=O)NO)S(C)(=O)=O [Example 31, (2R)-4-[5-Fluoro-4-(4-fluorophenyl)-2-oxopyridin-1(2H)-yl]-N-hydroxy-2-methyl-2-(methylsulfonyl)butanamide]
MIC [1]: > 64 µg/mL
MIC [2]: 0.5 µg/mL (≈ 1.25 µM)
MIC [3]: 1 µg/mL (≈ 2.5 µM)
IC50 ([4]; Table 2, read-out: PA:IC50): 0.213 nM

COc1cccc(-c2cc(=O)n(CC[C@](C)(C(=O)NO)S(C)(=O)=O)cc2F)c1F [Example 17, (2R)-4-[5-fluoro-4-(2-fluoro-3-methoxyphenyl)-2-oxopyridin-1(2H)-yl]-N-hydroxy-2-methyl-2-(methylsulfonyl)butanamide]
MIC [1]: > 64 µg/mL
MIC [2]: 1 µg/mL (≈ 2.32 µM)
MIC [3]: 0.5 µg/mL (≈ 1.16 µM)
IC50 ([4]; Table 2, read-out: PA:IC50): 0.5 nM

COc1cnn(-c2ccc(-c3cc(=O)n(CC[C@](C)(C(=O)NO)S(C)(=O)=O)cc3F)cc2)n1 [Example 22, (2R)-4-{5-Fluoro-4-[4-(4-methoxy-2H-1,2,3-triazol-2-yl)phenyl]-2-oxopyridin-1(2H)-yl}-N-hydroxy-2-methyl-2-(methylsulfonyl)butanamide]
MIC [1]: > 64 µg/mL
MIC [2]: 0.5 µg/mL (≈ 1.04 µM)
MIC [3]: ≤ 0.06 µg/mL
IC50 ([4]; Table 2, read-out: PA:IC50): 0.181 nM

C[C@@](CCn1cc(F)c(-c2ccc(Cl)cc2)cc1=O)(C(=O)NO)S(C)(=O)=O [Example 3, (2R)-4-[4-(4-Chlorophenyl)-5-fluoro-2-oxopyridin-1(2H)-yl]-N-hydroxy-2-methyl-2-(methylsulfonyl)butanamide]
MIC [1]: 64 µg/mL (≈ 154 µM)
MIC [2]: 0.25 µg/mL (≈ 0.6 µM)
MIC [3]: 0.25 µg/mL (≈ 0.6 µM)
IC50 ([4]; Table 2, read-out: PA:IC50): 0.325 nM

C[C@@](CCn1cc(F)c(-c2ccc(OC(F)F)c(F)c2)cc1=O)(C(=O)NO)S(C)(=O)=O [Example 35, (2R)-4-{4-[4-(difluoromethoxy)-3-fluorophenyl]-5-fluoro-2-oxopyridin-1(2H)-yl}-N-hydroxy-2-methyl-2-(methylsulfonyl)butanamide]
MIC [1]: > 64 µg/mL
MIC [2]: 0.5 µg/mL (≈ 1.07 µM)
MIC [3]: 1 µg/mL (≈ 2.14 µM)
IC50 ([4]; Table 2, read-out: PA:IC50): 0.589 nM

C[C@@](CCn1cc(F)c(-c2cccc(Oc3nccs3)c2)cc1=O)(C(=O)NO)S(C)(=O)=O [Example 49, (2R)-4-{5-Fluoro-2-oxo-4-[3-(1,3-thiazol-2-yloxy)phenyl]pyridin-1(2H)-yl}-N-hydroxy-2-methyl-2-(methylsulfonyl)butanamide]
MIC [1]: > 64 µg/mL
MIC [2]: 2 µg/mL (≈ 4.15 µM)
MIC [3]: 0.25 µg/mL (≈ 0.519 µM)
IC50 ([4]; Table 2, read-out: PA:IC50): 0.758 nM

Cc1cnn(-c2ccc(-c3cc(=O)n(CC[C@](C)(C(=O)NO)S(C)(=O)=O)cc3F)cc2)n1 [Example 23, (2R)-4-{5-Fluoro-4-[4-(4-methyl-2H-1,2,3-triazol-2-yl)phenyl]-2-oxopyridin-1(2H)-yl}-N-hydroxy-2-methyl-2-(methylsulfonyl)butanamide]
MIC [1]: > 64 µg/mL
MIC [2]: 0.5 µg/mL (≈ 1.08 µM)
MIC [3]: 0.06 µg/mL (≈ 0.129 µM)
IC50 ([4]; Table 2, read-out: PA:IC50): 0.287 nM

C[C@@](CCn1cc(F)c(-c2ccccc2)c(O)c1=O)(C(=O)NO)S(C)(=O)=O [Example 40, (2R)-4-(5-Fluoro-3-hydroxy-2-oxo-4-phenylpyridin-1(2H)-yl)-N-hydroxy-2-methyl-2-(methylsulfonyl)butanamide]
MIC [1]: 64 µg/mL (≈ 161 µM)
MIC [2]: 16 µg/mL (≈ 40.2 µM)
MIC [3]: 16 µg/mL (≈ 40.2 µM)
IC50 ([4]; Table 2, read-out: PA:IC50): > 100 nM

Cc1ccc(-c2cc(=O)n(CC[C@](C)(C(=O)NO)S(C)(=O)=O)cc2F)cc1 [Example 29, (2R)-4-[5-Fluoro-4-(4-methylphenyl)-2-oxopyridin-1(2H)-yl]-N-hydroxy-2-methyl-2-(methylsulfonyl)butanamide]
MIC [1]: > 64 µg/mL
MIC [2]: 0.5 µg/mL (≈ 1.26 µM)
MIC [3]: 0.5 µg/mL (≈ 1.26 µM)
IC50 ([4]; Table 2, read-out: PA:IC50): 0.514 nM

C[C@@](CCn1cc(F)c(-c2ccc(OCC(F)(F)F)cc2)cc1=O)(C(=O)NO)S(C)(=O)=O [Example 7, (2R)-4-{5-Fluoro-2-oxo-4-[4-(2,2,2-trifluoroethoxy)phenyl]pyridin-1(2H)-yl}-N-hydroxy-2-methyl-2-(methylsulfonyl)butanamide]
MIC [1]: > 64 µg/mL
MIC [2]: 1 µg/mL (≈ 2.08 µM)
MIC [3]: 0.25 µg/mL (≈ 0.52 µM)
IC50 ([4]; Table 2, read-out: PA:IC50): 0.576 nM

COc1ccc(-c2cc(=O)n(CC[C@](C)(C(=O)NO)S(C)(=O)=O)cc2F)cc1C [Example 34, (2R)-4-[5-Fluoro-4-(4-methoxy-3-methylphenyl)-2-oxopyridin-1(2H)-yl]-N-hydroxy-2-methyl-2-(methylsulfonyl)butanamide]
MIC [1]: > 64 µg/mL
MIC [2]: 0.5 µg/mL (≈ 1.17 µM)
MIC [3]: 0.25 µg/mL (≈ 0.586 µM)
IC50 ([4]; Table 2, read-out: PA:IC50): 0.834 nM

CSc1ccc(-c2cc(=O)n(CC[C@](C)(C(=O)NO)S(C)(=O)=O)cc2F)cc1 [Example 9, (2R)-4-{5-Fluoro-4-[4-(methylthio)phenyl]-2-oxopyridin-1(2H)-yl}-N-hydroxy-2-methyl-2-(methylsulfonyl)butanamide]
MIC [1]: > 64 µg/mL
MIC [2]: 0.5 µg/mL (≈ 1.17 µM)
MIC [3]: 0.25 µg/mL (≈ 0.583 µM)
IC50 ([4]; PA:IC50, Table 2): 0.51 nM

C[C@@](CCn1cc(F)c(-c2ccc(OC(F)F)cc2)cc1=O)(C(=O)NO)S(C)(=O)=O [Example 33, (2R)-4-{4-[4-(Difluoromethoxy)phenyl]-5-fluoro-2-oxopyridin-1(2H)-yl}-N-hydroxy-2-methyl-2-(methylsulfonyl)butanamide]
MIC [1]: > 64 µg/mL
MIC [2]: 0.5 µg/mL (≈ 1.12 µM)
MIC [3]: 0.5 µg/mL (≈ 1.12 µM)
IC50 ([4]; Table 2, read-out: PA:IC50): 0.0606 nM

C[C@@](CCn1cc(F)c(-c2ccccc2)c(F)c1=O)(C(=O)NO)S(C)(=O)=O [Example 38, (2R)-4-(3,5-Difluoro-2-oxo-4-phenylpyridin-1(2H)-yl)-N-hydroxy-2-methyl-2-(methylsulfonyl)butanamide]
MIC [1]: > 64 µg/mL
MIC [2]: 0.5 µg/mL (≈ 1.25 µM)
MIC [3]: 1 µg/mL (≈ 2.5 µM)
IC50 ([4]; Table 2, read-out: PA:IC50): 0.55 nM

C[C@@](CCn1cc(F)c(-c2ccc(OC(F)(F)F)cc2)cc1=O)(C(=O)NO)S(C)(=O)=O [Example 30, (2R)-4-{5-Fluoro-2-oxo-4-[4-(trifluoromethoxy)phenyl]pyridin-1(2H)-yl}-N-hydroxy-2-methyl-2-(methylsulfonyl)butanamide]
MIC [1]: > 64 µg/mL
MIC [2]: 0.5 µg/mL (≈ 1.07 µM)
MIC [3]: 0.25 µg/mL (≈ 0.536 µM)
IC50 ([4]; Table 2, read-out: PA:IC50): 0.106 nM

C[C@@](CCn1cc(F)c(-c2ccc(F)c(F)c2)cc1=O)(C(=O)NO)S(C)(=O)=O [Example 6, (2R)-4-[4-(3,4-Difluorophenyl)-5-fluoro-2-oxopyridin-1(2H)-yl]-N-hydroxy-2-methyl-2-(methylsulfonyl)butanamide]
MIC [1]: > 64 µg/mL
MIC [2]: 0.5 µg/mL (≈ 1.2 µM)
MIC [3]: 1 µg/mL (≈ 2.39 µM)
IC50 ([4]; Table 2, read-out: PA:IC50): 0.833 nM

COc1cnc(-c2ccc(-c3cc(=O)n(CC[C@](C)(C(=O)NO)S(C)(=O)=O)cc3F)cc2)nc1 [Example 21, (2R)-4-{5-Fluoro-4-[4-(5-methoxypyrimidin-2-yl)phenyl]-2-oxopyridin-1(2H)-yl}-N-hydroxy-2-methyl-2-(methylsulfonyl)butanamide]
MIC [1]: > 64 µg/mL
MIC [2]: 1 µg/mL (≈ 2.04 µM)
MIC [3]: 0.125 µg/mL (≈ 0.255 µM)
IC50 ([4]; Table 2, read-out: PA:IC50): 0.436 nM

C[C@@](CCn1cc(F)c(-c2ccc(-c3ccon3)cc2)cc1=O)(C(=O)NO)S(C)(=O)=O [Example 41, (2R)-4-[5-Fluoro-4-(4-isoxazol-3-ylphenyl)-2-oxopyridin-1(2H)-yl]-N-hydroxy-2-methyl-2-(methylsulfonyl)butanamide]
MIC [1]: 16 µg/mL (≈ 35.6 µM)
MIC [2]: 0.5 µg/mL (≈ 1.11 µM)
MIC [3]: 0.5 µg/mL (≈ 1.11 µM)
IC50 ([4]; Table 2, read-out: PA:IC50): 0.237 nM
